# According to patent US7109338B2, “1,2-disubstituted 1,4-dihydro-4-oxoquinoline compounds” (priority 1999, dated 2006):
# Columns and labels:
# [1] = tested on: HeLa (Ohio strain)cells; assay: Cytotoxicity (MTT, without virus), HeLa(Ohio); conditions: HeLa(Ohio), no virus, incubated for 4 days
# [2] = tested on: coxsackievirus type B4 (CB4,JVB); assay: In vitro anti-picornavirus activity (MTT), CB4; type: cell-based; conditions: HeLa cells, MTT method, 37° C.
# [3] = tested on: HRV21 (47); assay: Anti-rhinovirus spectrum (MTT), HRV21; type: cell-based, human rhinovirus; set-up: Anti-Rhinovirus activity, HRV21: unit not given here; conditions: HRV21
# [4] = tested on: human rhinovirus type 1B (HRV 1B, B632); assay: Anti-rhinovirus activity (MTT), HRV1B; type: cell-based; set-up: Anti-Rhinovirus activity, HRV1B: unit not given here; conditions: for IC50 HRV1B: HeLa (Ohio strain) cells, MTT method, 33° C.
# [5] = tested on: HRV33 (1200); assay: Anti-rhinovirus spectrum (MTT), HRV33; type: cell-based, human rhinovirus; set-up: Anti-Rhinovirus activity, HRV33: unit not given here; conditions: HRV33
# [6] = tested on: HRV1A (E28); assay: Anti-rhinovirus activity (MTT), HRV1A; type: cell-based, human rhinovirus; set-up: Anti-Rhinovirus activity, HRV1A: unit not given here; conditions: for IC50 HRV 1A: HeLa (Ohio strain) cells, MTT method, 33° C.
# [7] = tested on: HeLa-S3 cells; assay: Cytotoxicity (MTT, without virus), HeLa-S3; conditions: HeLa-S3, no virus, incubated for 4 days
# [8] = tested on: coxsackievirus type A7 (CA7); assay: In vitro anti-picornavirus activity (MTT), CA7; type: cell-based; conditions: HeLa-S3 cells, MTT method, 37° C.
# [9] = tested on: HRV3(FEB); assay: Anti-rhinovirus spectrum (MTT), HRV3; type: cell-based, human rhinovirus; set-up: Anti-Rhinovirus activity, HRV3: unit not given here; conditions: HRV3
# [10] = tested on: echovirus type 11 (Echo 11, Gregory); assay: In vitro anti-picornavirus activity (MTT), Echo 11; type: cell-based; conditions: HeLa-S3 cells, MTT method, 37° C.
# [11] = tested on: HRV10 (204-CV14); assay: Anti-rhinovirus spectrum (MTT), HRV10; type: cell-based, human rhinovirus; set-up: Anti-Rhinovirus activity, HRV10: unit not given here; conditions: HRV10
# [12] = tested on: HRV 2 (HGP); assay: Anti-rhinovirus activity (MTT), HRV2; type: cell-based, human rhinovirus; set-up: Anti-Rhinovirus activity, HRV2: unit not given here; conditions: for IC50 HRV2: HeLa (Ohio strain) cells, MTT method, 33° C.
# [13] = tested on: HRV5; assay: Anti-rhinovirus spectrum (MTT), HRV5; type: cell-based, human rhinovirus; set-up: Anti-Rhinovirus activity, HRV5: unit not given here; conditions: HRV5
# [14] = tested on: HRV 89 (41617-Gallo); assay: Anti-rhinovirus activity (MTT), HRV89; type: cell-based, human rhinovirus; set-up: Anti-Rhinovirus activity, HRV89: unit not given here; conditions: for IC50 HRV89: HeLa (Ohio strain) cells, MTT method, 33° C.
# [15] = tested on: HeLa cells; assay: Cytotoxicity (MTT, without virus), HeLa; conditions: HeLa, no virus, incubated for 4 days
# [16] = tested on: HRV36 (342H); assay: Anti-rhinovirus spectrum (MTT), HRV36; type: cell-based, human rhinovirus; set-up: Anti-Rhinovirus activity, HRV36: unit not given here; conditions: HRV36
# [17] = tested on: HRV50(A2#58); assay: Anti-rhinovirus spectrum (MTT), HRV50; type: cell-based, human rhinovirus; set-up: Anti-Rhinovirus activity, HRV50: unit not given here; conditions: HRV50
# [18] = tested on: HRV31 (41F); assay: Anti-rhinovirus spectrum (MTT), HRV31; type: cell-based, human rhinovirus; set-up: Anti-Rhinovirus activity, HRV31: unit not given here; conditions: HRV31
# [19] = tested on: HRV13 (353); assay: Anti-rhinovirus spectrum (MTT), HRV13; type: cell-based, human rhinovirus; set-up: Anti-Rhinovirus activity, HRV13: unit not given here; conditions: HRV13
# [20] = tested on: HRV32 (363); assay: Anti-rhinovirus spectrum (MTT), HRV32; type: cell-based, human rhinovirus; set-up: Anti-Rhinovirus activity, HRV32: unit not given here; conditions: HRV32
# [21] = tested on: HRV61 (6669-CV39); assay: Anti-rhinovirus spectrum (MTT), HRV61; type: cell-based, human rhinovirus; set-up: Anti-Rhinovirus activity, HRV61: unit not given here; conditions: HRV61
# [22] = tested on: HRV8(MRH); assay: Anti-rhinovirus spectrum (MTT), HRV8; type: cell-based, human rhinovirus; set-up: Anti-Rhinovirus activity, HRV8: unit not given here; conditions: HRV8
# [23] = tested on: HRV39 (209); assay: Anti-rhinovirus spectrum (MTT), HRV39; type: cell-based, human rhinovirus; set-up: Anti-Rhinovirus activity, HRV39: unit not given here; conditions: HRV39
# [24] = tested on: HRV41 (56110); assay: Anti-rhinovirus spectrum (MTT), HRV41; type: cell-based, human rhinovirus; set-up: Anti-Rhinovirus activity, HRV41: unit not given here; conditions: HRV41
# [25] = tested on: HRV29 (5582); assay: Anti-rhinovirus spectrum (MTT), HRV29; type: cell-based, human rhinovirus; set-up: Anti-Rhinovirus activity, HRV29: unit not given here; conditions: HRV29
# [26] = tested on: HRV14 (1059); assay: Anti-rhinovirus activity (MTT), HRV14; type: cell-based, human rhinovirus; set-up: Anti-Rhinovirus activity, HRV14: unit not given here; conditions: for IC50 HRV 14: HeLa (Ohio strain) cells, MTT method, 33° C.
# [27] = tested on: Poliovirus type 1 (Polio 1, Sabin); assay: microbe, parasite or virus in culture; type: cell-based
# [28] = tested on: HRV16 (11757); assay: Anti-rhinovirus spectrum (MTT), HRV16; type: cell-based, human rhinovirus; set-up: Anti-Rhinovirus activity, HRV16: unit not given here; conditions: HRV16
# [29] = tested on: clinical isolate (89229T); assay: microbe, parasite or virus in culture; type: cell-based, human rhinovirus; set-up: Anti-Rhinovirus activity, Clinical isolated strain: unit not given here; conditions: Clinical isolated strain
Structure (SMILES),Cytotoxicity CC50 HeLa(Ohio) [1] [µg/mL],IC50 CB4 [2] [µg/mL],"Anti-Rhinovirus activity, HRV21 [3]","Anti-Rhinovirus activity, HRV1B [4]",IC50 HRV1B [4] [µg/mL],"Anti-Rhinovirus activity, HRV33 [5]","Anti-Rhinovirus activity, HRV1A [6]",IC50 HRV 1A [6] [µg/mL],Cytotoxicity CC50 HeLa-S3 [7] [µg/mL],IC50 CA7 [8] [µg/mL],"Anti-Rhinovirus activity, HRV3 [9]",IC50 Echo 11 [10] [µg/mL],"Anti-Rhinovirus activity, HRV10 [11]","Anti-Rhinovirus activity, HRV2 [12]",IC50 HRV2 [12] [µg/mL],"Anti-Rhinovirus activity, HRV5 [13]","Anti-Rhinovirus activity, HRV89 [14]",IC50 HRV89 [14] [µg/mL],Cytotoxicity CC50 HeLa [15] [µg/mL],"Anti-Rhinovirus activity, HRV36 [16]",further results
CCn1c2c(c(=O)c3cc(CC(C)C)ccc31)Cc1cc(OC)ccc1-2 [Compound B12],>2.5,0.63,0.17,0.25,0.25,0.12,>2.5,>2.5,>2.5,2.0,0.52,0.19,0.43,0.31,0.31,0.29,0.31,0.31,>2.5,0.21,"Anti-Rhinovirus activity, HRV50 [17]: 0.12; Anti-Rhinovirus activity, HRV31 [18]: 0.11; Anti-Rhinovirus activity, HRV13 [19]: 0.091; Anti-Rhinovirus activity, HRV32 [20]: 0.33; Anti-Rhinovirus activity, HRV61 [21]: 0.31; Anti-Rhinovirus activity, HRV8 [22]: 0.32; Anti-Rhinovirus activity, HRV39 [23]: 0.38; Anti-Rhinovirus activity, HRV41 [24]: 0.11; Anti-Rhinovirus activity, HRV29 [25]: 0.44; Anti-Rhinovirus activity, HRV14 [26]: 0.43; IC50 HRV 14 [26]: 0.43 µg/mL; IC50 Polio 1 [27]: 0.39 µg/mL; Anti-Rhinovirus activity, HRV16 [28]: 1.4; Anti-Rhinovirus activity, Clinical isolated strain [29]: 0.46"
CCn1c2c(c(=O)c3cc(C(C)C)ccc31)Cc1ccccc1-2.Cl [Compound B3],>4,0.82,0.20,0.30,0.30,0.20,2.6,2.6,>4,2.1,2.9,0.35,1.8,0.54,0.54,0.36,0.57,0.57,>4,0.30,"Anti-Rhinovirus activity, HRV50 [17]: 0.20; Anti-Rhinovirus activity, HRV31 [18]: 0.29; Anti-Rhinovirus activity, HRV13 [19]: 0.17; Anti-Rhinovirus activity, HRV32 [20]: 0.61; Anti-Rhinovirus activity, HRV61 [21]: 0.80; Anti-Rhinovirus activity, HRV8 [22]: 0.46; Anti-Rhinovirus activity, HRV39 [23]: 1.7; Anti-Rhinovirus activity, HRV41 [24]: 0.20; Anti-Rhinovirus activity, HRV29 [25]: 1.5; Anti-Rhinovirus activity, HRV14 [26]: 0.74; IC50 HRV 14 [26]: 0.74 µg/mL; IC50 Polio 1 [27]: 0.72 µg/mL; Anti-Rhinovirus activity, HRV16 [28]: 2.3; Anti-Rhinovirus activity, Clinical isolated strain [29]: 1.9"
